Measurements published in patent US11702422B2, “Imidazopyridazines as modulators of IL-17” (Janssen Pharmaceutica NV, priority 2020, dated 2023).

Columns and labels:
[1] = biological target: IL-17A(FLAG-Tagged): IL-17RA(His-Tagged) (Homo sapiens, UniProt Q16552, K93Q); assay: IL-17A(FLAG-Tagged): IL-17RA(His-Tagged) Binding Disruption Eu-HTRF Assay; conditions: IL-17A/IL-17RA binding disruption, simple average if tested more than once
Procedure, shortened: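 IC50 comes from a one-site competition fit of the HTRF 665/620 nm ratio. Compound dilutions (2-fold, 22 points) were held 1 h rt with FLAG-tagged IL-17A dimer, then His-tagged IL-17RA plus Eu-cryptate anti-FLAG and D2 anti-His antibodies were added for 2 h rt.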

[2] = system: IL-17A-induced G-CSF production in human normal keratinocyte (NHK); assay: NHK Assay: IL-17A-induced G-CSF production in human normal keratinocytes; assay type: cell-based; conditions: 24 h, adult normal human keratinocytes, IL-17A 5 ng/mL, simple average if tested more than once
Procedure, shortened: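 Adult NHK, 3000-4000 cells/well; rhIL-17A + titrated cpd preincubated 1 h rt, then onto cells. Final: IL-17A 5 ng/mL, DMSO 0.2%, 5% FBS. 24 h, 37° C. G-CSF in supernatant by HTRF vs standard curve; IC50. Viability by CellTiter-Glo vs DMSO.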

Chain of UniProt Q16552 (Q16552 with tags, fused parts or gaps K93Q): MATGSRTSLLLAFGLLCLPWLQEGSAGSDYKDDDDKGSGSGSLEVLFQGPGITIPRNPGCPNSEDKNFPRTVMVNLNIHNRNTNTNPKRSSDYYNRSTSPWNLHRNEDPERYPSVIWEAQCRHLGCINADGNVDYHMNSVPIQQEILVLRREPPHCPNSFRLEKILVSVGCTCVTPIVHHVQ

| IC50 [1] | SMILES | IC50 ([2]; Homo sapiens, Keratinocyte) | IC50 [2] |
| --- | --- | --- | --- |
| 75 nM | CC(C)n1ncnc1C(=O)N[C@H](c1cn2ncc([C@H](NC(=O)CCC(F)(F)F)C3CC3)cc2n1)C1CCC(F)(F)CC1 [Example 483, N—[(S)-[7-[(R)-Cyclopropyl-(4,4,4-trifluorobutanamido)methyl]imidazo[1,2-b]pyridazin-2-yl]-(4,4-difluorocyclohexyl)methyl]-2-isopropyl-1,2,4-triazole-3-carboxamide] | 380 nM |  |
| 140 nM | O=C(CCC(F)(F)F)N[C@@H](c1cnn2cc([C@@H](NC(=O)c3cnn(CCC(F)F)n3)C3CCC(F)(F)CC3)nc2c1)C1CC1 [Example 32, N—((S)-(7-((R)-Cyclopropyl(4,4,4-trifluorobutanamido)methyl)imidazo[1,2-b]pyridazin-2-yl)(4,4-difluorocyclohexyl)methyl)-2-(3,3-difluoropropyl)-2H-1,2,3-triazole-4-carboxamide] | 240 nM |  |
| 1700 nM | Cc1cccc(C(=O)N[C@H](c2cn3ncc([C@H](NC(=O)CCC(F)(F)F)C4CC4)cc3n2)C2CCC(F)(F)CC2)n1 [Example 224, N—((S)-(7-((R)-Cyclopropyl(4,4,4-trifluorobutanamido)methyl)imidazo[1,2-b]pyridazin-2-yl)(4,4-difluorocyclohexyl)methyl)-6-methylpicolinamide] | > 20000 nM |  |
| 52 nM | CC(C)n1ncc(F)c1C(=O)N[C@H](c1cn2ncc([C@H](NC(=O)CCC(F)(F)F)C3CC3)cc2n1)C1CCC(F)(F)CC1 [Example 111, N—((S)-(7-((R)-Cyclopropyl(4,4,4-trifluorobutanamido)methyl)imidazo[1,2-b]pyridazin-2-yl)(4,4-difluorocyclohexyl)methyl)-4-fluoro-1-isopropyl-1H-pyrazole-5-carboxamide] | 410 nM |  |
| 54 nM | Cn1nccc1C(=O)N[C@H](c1cn2ncc(C(NC(=O)CCC(F)(F)F)C3CC3)cc2n1)C1CCC(F)(F)CC1 (single isomer, unassigned) [Example 23, N—((S)-(7-((R*)-Cyclopropyl(4,4,4-trifluorobutanamido)methyl)imidazo[1,2-b]pyridazin-2-yl)(4,4-difluorocyclohexyl)methyl)-1-methyl-1H-pyrazole-5-carboxamide] | 82 nM |  |
| 44 nM | O=C(CCC(F)(F)F)N[C@@H](c1cnn2cc([C@@H](NC(=O)c3ccnc(OC4CC4)c3)C3CCC(F)(F)CC3)nc2c1)C1CC1 [Example 172, 2-Cyclopropoxy-N—((S)-(7-((R)-cyclopropyl(4,4,4-trifluorobutanamido)methyl)imidazo[1,2-b]pyridazin-2-yl)(4,4-difluorocyclohexyl)methyl)isonicotinamide] | 320 nM |  |
| 160 nM | O=C(CC1CC(F)(F)C1)NC(c1cnn2cc([C@@H](NC(=O)c3ccn(CCC(F)(F)F)n3)C3CCC(F)(F)CC3)nc2c1)C1CC1 (single isomer, unassigned) [Example 20, N—((S)-(7-((R*)-Cyclopropyl(2-(3,3-difluorocyclobutyl)acetamido)methyl)imidazo[1,2-b]pyridazin-2-yl)(4,4-difluorocyclohexyl)methyl)-1-(3,3,3-trifluoropropyl)-1H-pyrazole-3-carboxamide] | 650 nM |  |
| 22 nM | O=C(CC12CC(F)(C1)C2)N[C@@H](c1cnn2cc([C@@H](NC(=O)c3nonc3C3CC3)C3CCC(F)(F)CC3)nc2c1)C1CC1 [Example 296, 4-Cyclopropyl-N—((S)-(7-((R)-cyclopropyl(2-(3-fluorobicyclo[1.1.1]pentan-1-yl)acetamido)methyl)imidazo[1,2-b]pyridazin-2-yl)(4,4-difluorocyclohexyl)methyl)-1,2,5-oxadiazole-3-carboxamide] | 50 nM |  |
| 210 nM | Cc1nonc1C(=O)N[C@H](c1cn2ncc([C@H](NC(=O)COC3CC3)C3CC3)cc2n1)C1CCC(F)(F)CC1 [Example 306, N—((S)-(7-((R)-(2-Cyclopropoxyacetamido)(cyclopropyl)methyl)imidazo[1,2-b]pyridazin-2-yl)(4,4-difluorocyclohexyl)methyl)-4-methyl-1,2,5-oxadiazole-3-carboxamide] | 1500 nM |  |
| 910 nM | O=C(CCC(F)(F)F)N[C@@H](c1cnn2cc([C@@H](NC(=O)c3nnn(CC4CC4)c3C(F)(F)F)C3CCC(F)(F)CC3)nc2c1)C1CC1 [Example 108, N—((S)-(7-((R)-Cyclopropyl(4,4,4-trifluorobutanamido)methyl)imidazo[1,2-b]pyridazin-2-yl)(4,4-difluorocyclohexyl)methyl)-1-(cyclopropylmethyl)-5-(trifluoromethyl)-1H-1,2,3-triazole-4-carboxamide] | > 20000 nM |  |
| 92 nM | O=C(CCC(F)(F)F)N[C@@H](c1cnn2cc([C@@H](NC(=O)c3cnnn3CC3CCC3(F)F)C3CCC(F)(F)CC3)nc2c1)C1CC1 (stereo partly drawn) [Example 91, N—((S)-(7-((R)-Cyclopropyl(4,4,4-trifluorobutanamido)methyl)imidazo[1,2-b]pyridazin-2-yl)(4,4-difluorocyclohexyl)methyl)-1-((2,2-difluorocyclobutyl)methyl)-1H-1,2,3-triazole-5-carboxamide] | 120 nM |  |
| 1600 nM | N#Cc1ccnc(C(=O)N[C@H](c2cn3ncc([C@H](NC(=O)CCC(F)(F)F)C4CC4)cc3n2)C2CCC(F)(F)CC2)c1 [Example 461, 4-Cyano-N—((S)-(7-((R)-cyclopropyl(4,4,4-trifluorobutanamido)methyl)imidazo[1,2-b]pyridazin-2-yl)(4,4-difluorocyclohexyl)methyl)picolinamide] | > 20000 nM |  |
| 150 nM | O=C(CC1CC(F)(F)C1)N[C@@H](c1cnn2cc([C@@H](NC(=O)c3nonc3C(O)C3CC3)C3CCC(F)(F)CC3)nc2c1)C1CC1 (single isomer, unassigned) [Example 401, N—((S)-(7-((R)-Cyclopropyl(2-(3,3-difluorocyclobutyl)acetamido)methyl)imidazo[1,2-b]pyridazin-2-yl)(4,4-difluorocyclohexyl)methyl)-4-((R*)-cyclopropyl(hydroxy)methyl)-1,2,5-oxadiazole-3-carboxamide] | 57 nM |  |
| 240 nM | O=C(CCC(F)(F)F)N[C@@H](c1cnn2cc([C@@H](NC(=O)c3cccnc3)C3CCC(F)(F)CC3)nc2c1)C1CC1 [Example 192, N—((S)-(7-((R)-Cyclopropyl(4,4,4-trifluorobutanamido)methyl)imidazo[1,2-b]pyridazin-2-yl)(4,4-difluorocyclohexyl)methyl)nicotinamide] | 1200 nM |  |
| 5400 nM | O=C(CCC(F)(F)F)N[C@@H](c1cnn2cc([C@@H](NC(=O)[C@H]3C[C@H]3F)C3CCC(F)(F)CC3)nc2c1)C1CC1 [Example 97, (1R,2R)—N—((S)-(7-((R)-Cyclopropyl(4,4,4-trifluorobutanamido)methyl)imidazo[1,2-b]pyridazin-2-yl)(4,4-difluorocyclohexyl)methyl)-2-fluorocyclopropane-1-carboxamide] | > 20000 nM |  |
| 650 nM | N#CC12CC(Cn3nncc3C(=O)N[C@H](c3cn4ncc([C@H](NC(=O)CCC(F)(F)F)C5CC5)cc4n3)C3CCC(F)(F)CC3)(C1)C2 [Example 145, 1-((3-Cyanobicyclo[1.1.1]pentan-1-yl)methyl)-N—((S)-(7-((R)-cyclopropyl(4,4,4-trifluorobutanamido)methyl)imidazo[1,2-b]pyridazin-2-yl)(4,4-difluorocyclohexyl)methyl)-1H-1,2,3-triazole-5-carboxamide] | 300 nM |  |
| 2700 nM | O=C(CCC(F)(F)F)N[C@@H](c1cnn2cc([C@@H](NC(=O)[C@@H]3C[C@H]3C(F)F)C3CCC(F)(F)CC3)nc2c1)C1CC1 (single isomer, unassigned) [Example 360] | > 20000 nM |  |
| 540 nM | Cc1ccnc(C(=O)N[C@H](c2cn3ncc([C@H](NC(=O)CCC(F)(F)F)C4CC4)cc3n2)C2CCC(F)(F)CC2)c1 [Example 206, N—((S)-(7-((R)-Cyclopropyl(4,4,4-trifluorobutanamido)methyl)imidazo[1,2-b]pyridazin-2-yl)(4,4-difluorocyclohexyl)methyl)-4-methylpicolinamide] | 4000 nM |  |
| 8300 nM | O=C(CC1CC(F)(F)C1)NC(c1cnn2cc([C@@H](NC(=O)c3cnn(CCC(F)(F)F)c3)C3CCC(F)(F)CC3)nc2c1)C1CC1 (single isomer, unassigned) [Example 9, N—((S)-(7-((S*)-Cyclopropyl(2-(3,3-difluorocyclobutyl)acetamido)methyl)imidazo[1,2-b]pyridazin-2-yl)(4,4-difluorocyclohexyl)methyl)-1-(3,3,3-trifluoropropyl)-1H-pyrazole-4-carboxamide] |  | > 20000 nM |
| 150 nM | [2H]C([2H])([2H])C([2H])([2H])n1nccc1C(=O)N[C@H](c1cn2ncc([C@H](NC(=O)C[C@H](C)C(F)(F)F)C3CCC3)cc2n1)C1CCC(F)(F)CC1 (relative stereo) [Example 500, N—((S)-(7-((R*)-Cyclobutyl((S*)-4,4,4-trifluoro-3-methylbutanamido)methyl)imidazo[1,2-b]pyridazin-2-yl)(4,4-difluorocyclohexyl)methyl)-1-(ethyl-d5)-1H-pyrazole-5-carboxamide] | 140 nM |  |
